pIC50: −log10 of the molar value.
What follows are compounds tested against T1, His-tagged human recombinant DDR-2 kinase domain (His-TEV-DDR2 467-855 aa) (Homo sapiens, UniProt Q16832) (assay: Autophosphorylation assay for biochemical activity testing of DDR2 (HTRF)). Settings: biochemical DDR2 autophosphorylation.
T1 construct: His-TEV-DDR2 467-855 aa
T1 sequence (Q16832 467-855): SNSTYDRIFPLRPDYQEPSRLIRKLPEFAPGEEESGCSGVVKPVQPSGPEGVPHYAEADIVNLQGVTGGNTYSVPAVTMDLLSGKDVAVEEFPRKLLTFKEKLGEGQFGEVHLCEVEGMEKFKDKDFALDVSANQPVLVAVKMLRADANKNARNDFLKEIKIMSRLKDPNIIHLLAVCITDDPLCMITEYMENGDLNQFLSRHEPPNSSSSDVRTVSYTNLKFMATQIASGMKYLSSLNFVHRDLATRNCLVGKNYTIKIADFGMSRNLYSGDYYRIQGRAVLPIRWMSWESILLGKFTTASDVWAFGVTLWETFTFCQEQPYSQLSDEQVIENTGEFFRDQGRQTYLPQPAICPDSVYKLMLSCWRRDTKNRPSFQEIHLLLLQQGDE
Summary of the method: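 Phospho-tyrosine was detected by HTRF between XL665 anti-6His and cryptate anti-phosphotyrosine PT66 antibodies, using the emission ratio. Inhibition was referenced to the inhibitor-free reaction.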

| Compound | pIC50 |
| --- | --- |
| CNC(=O)c1cc(Oc2ccc(CNC(=O)Nc3cc(C)c(Cl)cc3OCCN3CCOCC3)c(C)c2)ccn1 [compound 133, 4-(4-{3-[4-Chloro-5-methyl-2-(2-morpholin-4-yl-ethoxy)-phenyl]-ureidomethyl}-3-methyl-phenoxy)-pyridine-2-carboxylic acid methylamide] | 5.70 |
| CNC(=O)c1cc(Oc2ccc(CNC(=O)Nc3cc(C)c(Cl)cc3OCCN3CCCC3)c(C)c2)ccn1 [compound 134, 4-(4-{3-[4-Chloro-5-methyl-2-(2-pyrrolidin-1-yl-ethoxy)-phenyl]-ureidomethyl}-3-methyl-phenoxy)-pyridine-2-carboxylic acid methylamide] | 5.92 |
| CCN(CC)CCOc1cc(Cl)c(C)cc1NC(=O)NCc1ccc(Oc2ccnc(C(=O)NC)c2)c(C)c1 [compound 136, 4-(4-{3-[4-Chloro-2-(2-diethylamino-ethoxy)-5-methyl-phenyl]-ureidomethyl}-2-methyl-phenoxy)-pyridine-2-carboxylic acid methylamide] | 6.41 |
| CNC(=O)c1cc(Oc2ccc(CNC(=O)Nc3cc(C)c(Cl)cc3OCCN3CCCC3)cc2C)ccn1 [compound 137, 4-(4-{3-[4-Chloro-5-methyl-2-(2-pyrrolidin-1-yl-ethoxy)-phenyl]-ureidomethyl}-2-methyl-phenoxy)-pyridine-2-carboxylic acid methylamide] | 6.85 |
| CNC(=O)c1cc(Oc2ccc(CNC(=O)Nc3cc(C(F)(F)F)c(Cl)cc3OCCN)cc2)ccn1 [compound 140, 4-(4-{3-[2-(2-Amino-ethoxy)-4-chloro-5-trifluoromethyl-phenyl]-ureidomethyl}-phenoxy)-pyridine-2-carboxylic acid methylamide] | 6.92 |
| CNCCOc1cc(Cl)c(C(F)(F)F)cc1NC(=O)NCc1ccc(Oc2ccnc(C(=O)NC)c2)c(C)c1 [compound 147, 4-(4-{3-[4-Chloro-2-(2-methylamino-ethoxy)-5-trifluoromethyl-phenyl]-ureidomethyl}-2-methyl-phenoxy)-pyridine-2-carboxylic acid methylamide] | 7.39 |
| CNC(=O)c1cc(Oc2ccc(CNC(=O)Nc3cc(Cl)c(C)cc3OC)cc2C)ccn1 [compound 151, 4-{4-[3-(5-Chloro-2-methoxy-4-methyl-phenyl)-ureidomethyl]-2-methyl-phenoxy}-pyridine-2-carboxylic acid methylamide] | 7.00 |
| CNC(=O)c1cc(Oc2ccc(CNC(=O)Nc3cc(C)ccc3OC3CCNCC3)cc2)ccn1 [compound 159, 4-(4-{3-[5-Methyl-2-(piperidin-4-yloxy)-phenyl]-ureidomethyl}-phenoxy)-pyridine-2-carboxylic acid methylamide] | 7.08 |
| CNC(=O)c1cc(Oc2ccc(CNC(=O)Nc3cc(C)c(Cl)cc3OCCCCN(C)C)cc2)ccn1 [compound 161, 4-(4-{3-[4-Chloro-2-(4-dimethylamino-butoxy)-5-methyl-phenyl]-ureidomethyl}-phenoxy)-pyridine-2-carboxylic acid methylamide] | 6.80 |
| CNC(=O)c1cc(Oc2ccc(CNC(=O)Nc3cc(C)c(Cl)cc3OCCCCN(C)C)cc2C)ccn1 [compound 165, 4-(4-{3-[4-Chloro-2-(4-dimethylamino-butoxy)-5-methyl-phenyl]-ureidomethyl}-2-methyl-phenoxy)-pyridine-2-carboxylic acid methylamide] | 6.68 |
| CNC(=O)c1cc(Oc2ccc(CNC(=O)Nc3cc(C(F)(F)F)ccc3OCCOC)cc2)ccn1 [compound 166, 4-(4-{3-[2-(2-Methoxy-ethoxy)-5-trifluoromethyl-phenyl]-ureidomethyl}-phenoxy)-pyridine-2-carboxylic acid methylamide] | 6.85 |
| CNC(=O)c1cc(Oc2ccc(CNC(=O)Nc3cc(C(F)(F)F)ccc3OCCOC)cc2C)ccn1 [compound 168, 4-(4-{3-[2-(2-Methoxy-ethoxy)-5-trifluoromethyl-phenyl]-ureidomethyl}-2-methyl-phenoxy)-pyridine-2-carboxylic acid methylamide] | 6.89 |
| CNC(=O)c1cc(Oc2ccc(CNC(=O)Nc3cc(Cl)c(C)cc3OCCN3CCCC3)cc2)ccn1 [compound 173, 4-(4-{3-[5-Chloro-4-methyl-2-(2-pyrrolidin-1-yl-ethoxy)-phenyl]-ureidomethyl}-phenoxy)-pyridine-2-carboxylic acid methylamide] | 6.59 |
| CNC(=O)c1cc(Oc2ccc(CNC(=O)Nc3ccccc3)cc2)ccn1 [compound 181, 4-{4-[(3-Phenyl-ureido)-methyl]-phenoxy}-pyridine-2-carboxylic acid methylamide] | 5.31 |
| CNC(=O)c1cc(Oc2ccc(CNC(=O)Nc3cc(C(F)(F)F)c(Cl)cc3OCCNS(C)(=O)=O)cc2)ccn1 [compound 194, 4-(4-{3-[4-Chloro-2-(2-methanesulfonylamino-ethoxy)-5-trifluoromethyl-phenyl]-ureidomethyl}-phenoxy)-pyridine-2-carboxylic acid methylamide] | 7.19 |
| CNC(=O)c1cc(Oc2ccc(CNC(=O)Nc3cc(C(F)(F)F)ccc3OCCO)cc2)ccn1 [compound 197, 4-(4-{3-[2-(2-Hydroxy-ethoxy)-5-trifluoromethyl-phenyl]-ureidomethyl}-phenoxy)-pyridine-2-carboxylic acid methylamide] | 7.02 |
| CNC(=O)c1cc(Oc2ccc(CNC(=O)Nc3cc(Cl)c(C)cc3OC)cc2F)ccn1 [compound 216, 4-{4-[3-(5-Chloro-2-methoxy-4-methyl-phenyl)-ureidomethyl]-2-fluoro-phenoxy}-pyridine-2-carboxylic acid methylamide] | 7.37 |
| CCOc1ccc(C(F)(F)F)cc1NC(=O)NCc1ccc(Oc2ccnc(C(=O)NC)c2)c(C)c1 [compound 229, 4-{4-[3-(2-Ethoxy-5-trifluoromethyl-phenyl)-ureidomethyl]-2-methyl-phenoxy}-pyridine-2-carboxylic acid methylamide] | 7.08 |
| CCOc1ccc(C(F)(F)F)cc1NC(=O)NCc1ccc(Oc2ccnc(C(=O)NC)c2)cc1 [compound 230, 4-{4-[3-(2-Ethoxy-5-trifluoromethyl-phenyl)-ureidomethyl]-phenoxy}-pyridine-2-carboxylic acid methylamide] | 7.05 |

Results, then the compound that gave them:

| pIC50 | Compound |
| --- | --- |
| 6.51 | CNC(=O)c1cc(Oc2ccc(CNC(=O)Nc3cc(C)c(Cl)cc3OCCN3CCOCC3)cc2C)ccn1 [compound 138, 4-(4-{3-[4-Chloro-5-methyl-2-(2-morpholin-4-yl-ethoxy)-phenyl]-ureidomethyl}-2-methyl-phenoxy)-pyridine-2-carboxylic acid methylamide] |
| 7.60 | CNC(=O)c1cc(Oc2ccc(CNC(=O)Nc3cc(C(F)(F)F)c(Cl)cc3OCCN(C)C)cc2C)ccn1 [compound 152, 4-(4-{3-[4-Chloro-2-(2-dimethylamino-ethoxy)-5-trifluoromethyl-phenyl]-ureidomethyl}-2-methyl-phenoxy)-pyridine-2-carboxylic acid methylamide] |
| 7.33 | CNC(=O)c1cc(Oc2ccc(CNC(=O)Nc3cc(C)ccc3OC3CCNCC3)cc2C)ccn1 [compound 171, 4-(2-Methyl-4-{3-[5-methyl-2-(piperidin-4-yloxy)-phenyl]-ureidomethyl}-phenoxy)-pyridine-2-carboxylic acid methylamide] |
| 7.57 | CNC(=O)c1cc(Oc2ccc(CNC(=O)Nc3cc(Cl)c(C)cc3OCCN)cc2)ccn1 [compound 176, 4-(4-{3-[2-(2-Amino-ethoxy)-5-chloro-4-methyl-phenyl]-ureidomethyl}-phenoxy)-pyridine-2-carboxylic acid methylamide] |
| 7.49 | CNC(=O)c1cc(Oc2ccc(CNC(=O)Nc3cc(C(F)(F)F)ccc3OCCNS(C)(=O)=O)cc2)ccn1 [compound 180, 4-(4-{3-[2-(2-Methanesulfonylamino-ethoxy)-5-trifluoromethyl-phenyl]-ureidomethyl}-phenoxy)-pyridine-2-carboxylic acid methylamide] |
| 6.18 | CNC(=O)c1cc(Oc2ccc(CNC(=O)Nc3cc(C)c(Cl)cc3OCCNC(=O)C(F)(F)F)cc2)ccn1 [compound 187, 4-[4-(3-{4-Chloro-5-methyl-2-[2-(2,2,2-trifluoro-acetylamino)-ethoxy]-phenyl}-ureidomethyl)-phenoxy]-pyridine-2-carboxylic acid methylamide] |
| 6.74 | CNC(=O)c1cc(Oc2ccc(CNC(=O)Nc3cc(C)c(Cl)cc3OCCNS(C)(=O)=O)cc2)ccn1 [compound 193, 4-(4-{3-[4-Chloro-2-(2-methanesulfonylamino-ethoxy)-5-methyl-phenyl]-ureidomethyl}-phenoxy)-pyridine-2-carboxylic acid methylamide] |
| ≤ 4.00 | CNC(=O)c1cc(Oc2ccc(CNC(=O)Nc3cc(C(F)(F)F)ccc3OC(C)(C)C(N)=O)cc2)ccn1 [compound 199, 4-(4-{3-[2-(1 -Carbamoyl-1-methyl-ethoxy)-5-trifluoromethyl-phenyl]-ureidomethyl}-phenoxy)-pyridine-2-carboxylic acid methylamide] |
| 7.68 | CNC(=O)c1cc(Oc2ccc(CNC(=O)Nc3cc(C(F)(F)F)ccc3OC)cc2F)ccn1 [compound 217, 4-{2-Fluoro-4-[3-(2-methoxy-5-trifluoromethyl-phenyl)-ureidomethyl]-phenoxy}-pyridine-2-carboxylic acid methylamide] |
| 6.82 | CNC(=O)c1cc(Oc2ccc(CNC(=O)Nc3cc(C)c(Cl)cc3OC)cc2F)ccn1 [compound 218, 4-{4-[3-(4-Chloro-2-methoxy-5-methyl-phenyl)-ureidomethyl]-2-fluoro-phenoxy}-pyridine-2-carboxylic acid methylamide] |

— US20150225369A1, “DDR2 INHIBITORS FOR THE TREATMENT OF OSTEOARTHRITIS” (Merck Patent GmbH, priority 2012, published 2015)
